Assay in all cases: cells
What all share (parameters): growth inhibition of A375 parental and resistant melanoma cells, dose-response curves
Holding throughout (details): Homo sapiens, A-375, 96 h; read-out: Phendione IC50

The subject of assay [1] is A375 BRAFi resistant. The method, then: (§1) Figure 2. Phendione is a small molecule inhibitor targeting PP2A. (A) Immunoblots of A375 cell lysates collected after 3 h of drug treatment as indicated; i.e., increasing concentrations of LB100 compared with 0.2 µM phendione (left) and increasing concentrations of phendione compared with 3 µM pyrene (right). DMSO was used as negative control (vehicle). (B) Growth inhibition curves of A375 cells and IC50 values after treatment with phendione or LB100 for 96 h. Data are presented as mean ± SD of three independent experiments. (C) Phosphatase activity assay for PP2A core enzyme (complex of regulatory subunit Aα and catalytic subunit Cα; top), PP1 catalytic subunit Cα (middle) and PP1 catalytic subunit Cβ (bottom) incubated with phendione or pyrene at indicated concentrations. […] IC50s (micromolar) were calculated and is shown as an inset in each graph. […] (G) Quantification of cell apoptosis measured by Annexin V staining flow cytometry. Parental A375 and A375 BRAFi-resistant cells were treated with vehicle or increasing concentration of phendione as indicated in the panels for 24 h before apoptotic cells were measured by flow cytometry. […] Representative images are shown at the left and quantification results are shown at the right. […] (I,J) Quantification of reactive oxygen species (ROS) production measured by flow cytometry in A375 (I) and A375 BRAFi-resistant (J) cells. […]

In assay [2] the test system is A375. The protocol:
as §1

The test system of assay [3] is A375 BRAFi + MEKi resistant.

This passage reports IC50 results from PMC7197350, “Targeted chemotherapy overcomes drug resistance in melanoma” (Genes & Development, 2020).

`O=C1C(=O)c2cccnc2-c2ncccc21` [phendione, 1,10-phenanthroline-5,6-dione]: the IC50 was determined as 113 nM in assay [1], 94 nM in assay [2] and 119 nM in assay [3].
